Read-outs that look alike come from different tables or passages of the source.

In assay [1] the test system is primary cultured guinea-pig urinary bladder (GPB) cells. Put plainly: Membrane hyperpolarization (MHP) assay, DiBAC(4)3 / FLIPR. It counts as cell-based. To be noted: for EC50: concentration that elicits 50% of the maximal response for the test sample; for Emax / Maximal Response (% P1075): maximal steady-state hyperpolarization, normalized to response with 10 μM P1075 (100%). As for the experimental part:
Compounds were evaluated for potassium channel opening activity using primary cultured guinea-pig urinary bladder (GPB) cells.
For the preparation of urinary bladder smooth muscle cells, urinary bladders were removed from male guinea-pigs (Hartley, Charles River, Wilmington, Mass.) weighing 300-400 g and placed in ice-cold Ca^2+-free Krebs solution (Composition, mM: KCl, 2.7; KH2PO4, 1.5; NaCl, 75; Na2HPO4, 9.6; Na2HPO4.7H2O, 8; MgSO4, 2; glucose, 5; HEPES, 10; pH 7.4). Cells were isolated by enzymatic dissociation as previously described with minor modifications (Klockner, U. and Isenberg, G., Pflugers Arch. (1985), 405, 329-339), hereby incorporated by reference. The bladder was cut into small sections and incubated in 5 mL of the Kreb's solution containing I mg/mL collagenase (Sigma, St. Louis, Mo.) and 0.2 mg/mL pronase (Calbiochem, La Jolla, Calif.) with continuous stirring in a cell incubator for 30 minutes. The mixture was then centrifuged at 1300×g for 5 minutes, and the pellet resuspended in Dulbecco's PBS (GIBCO, Gaithersburg, Md.) and recentrifuged to remove residual enzyme. The cell pellet was resuspended in 5 mL growth media (composition: Dulbecco's modified Eagle's medium supplemented with 10% fetal bovine serum, 100 units/mL penicillin, 100 units/mL streptomycin and […] amphotericin B) and further dissociated by pipetting the suspension through a flame-polished Pasteur pipette and passing it through a polypropylene mesh membrane (Spectrum, Houston, Tex.). The cell density was adjusted to 100,000 cells/mL by resuspension in growth media. Cells were plated in clear-bottomed black 96-well plates (Packard) for membrane potential studies at a density of 20,000 cells/well and maintained in a cell incubator with 90% air: 10% CO2 until confluent. Cells were confirmed to be of smooth muscle type by cytoskeletal staining using a monoclonal mouse anti human-α-smooth muscle actin (Biomeda, Foster City, Calif.).
Functional activity at potassium channels was measured by evaluating changes in membrane potential using the bis-oxonol dye DiBAC(4) (Molecular Probes) in a 96-well cell-based kinetic assay system, Fluorescent Imaging Plate Reader (FLIPR) (K. S. Schroeder et al., J. Biomed. Screen., v. 1 pp. 75-81 (1996)), hereby incorporated by reference. DiBAC(4)3 is an anionic potentiometric probe which partitions between cells and extracellular solution in a membrane potential-dependent manner. With increasing membrane potential (for example, K^+ depolarization), the probe further partitions into the cell; this is measured as an increase in fluorescence due to dye interaction with intracellular lipids and proteins. Conversely, decreasing membrane potential (hyperpolarization by potassium channel openers) evokes a decrease in fluorescence.
Confluent guinea-pig urinary bladder cells cultured in black clear-bottomed 96-well plates were rinsed twice with […] assay buffer (composition, mM: HEPES, 20; NaCl, 120; KCl, 2; CaCl2, 2; MgCl2, 1; glucose, 5; pH 7.4 at 25° C.) containing 5 μM DiBAC(4)3 and incubated with […] of the buffer in a cell incubator for 30 minutes at 37° C. to ensure dye distribution across the membrane. After recording the baseline fluorescence for 5 minutes, the reference or test compounds, prepared at 10 times the concentration in the assay buffer, were added directly to the wells. Changes in fluorescence were monitored for an additional 25 minutes. Hyperpolarization responses were corrected for any background noise and were normalized to the response observed with 10 μM of the reference compound P1075 (assigned as 100%), a potent opener of smooth muscle KATP channels (Quast et al., Mol. Pharmacol., v. 43 pp. 474-481 (1993)), hereby incorporated by reference.
Routinely, five concentrations of P1075 or test compounds (log or half-log dilutions) were evaluated and the maximal steady-state hyperpolarization values (expressed as % relative to P1075) plotted as a function of concentration. […]

Assay [2] relates to tissue strips obtained from Landrace pig bladders. Put plainly: Functional potassium channel opening activity in isolated bladder strips (field-stimulated twitch). The settings on record: for Index: ED50 for P1075 divided by ED50 for the test agonist in a given tissue, averaged; for EC50: amount of agent necessary to cause 50% of the agent's maximal response, read-out: ED50 (the source's name). As for the experimental part: Compounds were evaluated for functional potassium channel opening activity using tissue strips obtained from Landrace pig bladders.
Landrace pig bladders were obtained from female Landrace pigs of 9-30 kg. Landrace pigs were euthanized with an intraperitoneal injection of pentobarbital solution, Somlethal®, J. A. Webster Inc., Sterling, Mass. The entire bladder was removed and immediately placed into Krebs Ringer bicarbonate solution (composition, mM: NaCl, 120; NaHCO3, 20; dextrose, 11; KCl, 4.7; CaCl2, 2.5; MgSO4, 1.5; KH2PO4, 1.2; K2EDTA, 0.01, equilibrated with 5% CO2/95% O2pH 7.4 at 37° C.). Propranolol (0.004 mM) was included in all of the assays to block β-adrenoceptors. The trigonal and dome portions were discarded. Strips 3-5 mm wide and 20 mm long were prepared from the remaining tissue cut in a circular fashion. The mucosal layer was removed. One end was fixed to a stationary glass rod and the other to a Grass FT03 transducer at a basal preload of 1.0 gram. Two parallel platinum electrodes were included in the stationary glass rod to provide field stimulation of 0.05 Hz, 0.5 milli-seconds at 20 volts. This low frequency stimulation produced a stable twitch response of 100-500 centigrams. Tissues were allowed to equilibrate for at least 60 minutes and primed with 80 mM KCl. A control concentration response curve (cumulative) was generated for each tissue using the potassium channel opener P1075 as the control agonist. […] After a 60 minute rinsing period, a concentration response curve (cumulative) was generated for the test agonist in the same fashion as that used for the control agonist P1075. The maximal efficacy of each compound (expressed as % relative to P1075) is reported. The amount of agent necessary to cause 50% of the agent's maximal response (ED50) was calculated using “ALLFIT” (DeLean et al., Am. J. Physiol., 235, E97 (1980)), hereby incorporated by reference. Agonist potencies were also expressed as an index relative to P1075. The index was calculated by dividing the ED50 for P1075 by the ED50 for the test agonist in a given tissue. Each tissue was used for only one test agonist, and the indices obtained from each tissue were averaged to provide an average index of potency.

The mark [3] stands for this setting: Sus scrofa, maximal efficacy relative to P1075, field stimulation 0.05 Hz, 0.5 ms, 20 volts.

In the case of `CC(C)(C)C(NC(=O)c1ccc(Cl)cc1)NC(=S)Nc1cccnc1` (centres unmarked) [Example 27, 4-chloro-N-(2,2-dimethyl-1-{[(3-pyridinylamino)carbothioyl]amino}propyl)benzamide], the figures for the EC50 in assay [1] (Cavia porcellus) and in assay [2] (Sus scrofa) were 100 nM and 25000 nM, respectively. The maximal effect (Emax) amounted to 80% in assay [1] (Cavia porcellus) and 94% in assay [2] (setting [3]). Besides, the Index in assay [2] is reported as 0.009.
For `Cc1ccc(C(=O)NC(NC(=S)Nc2cccnc2)C(C)(C)C)cc1` (centres unmarked) [Example 22, N-(2,2-dimethyl-1-{[(3-pyridinylamino)carbothioyl]amino}propyl)-4-methylbenzamide] the same measures were 220 nM, 5000 nM, 100%, 100% and 0.017.
Taken in the same sequence, the figures for `N#CN=C(Nc1cccnc1)NC(NC(=O)c1ccccc1)C(Cl)(Cl)Cl` (centres unmarked) [Example 49, N-(2,2,2-trichloro-1-{[(cyanoimino)(3-pyridinylamino)methyl]amino}ethyl)benzamide] were 40 nM, 3000 nM, 92%, 100% and 0.031.
On to `CC1=C(CC(NC(=O)c2ccc(Cl)cc2)NC(=NC#N)Nc2cccnc2)C(C)(C)CCC1` (single isomer, unassigned; (+)) [Example 88, (+) 4-chloro-N-[1-{[(cyanoimino)(3-pyridinylamino)methyl]amino}-2-(2,6,6-trimethyl-1-cyclohexen-1-yl)ethyl]benzamide], for which, in assay [1], the EC50 came out at 220 nM and the “Maximal Response (% P1075)” value is recorded as 87 % P1075. Moreover, in assay [2], the Index was found to be 0.074 and the EC50 amounted to 10000 nM. This compound showed an Emax in assay [2] (setting [3]) of 36%.
With `Cc1ccc(C(=O)NC(NC(=O)Nc2cccnc2)C(Cl)(Cl)Cl)cc1` (centres unmarked) [Example 38, 4-methyl-N-(2,2,2-trichloro-1-{[(3-pyridinylamino)carbonyl]amino}ethyl)benzamide], the EC50 amounted to 100 nM in assay [1] (Cavia porcellus) and 7000 nM in assay [2] (Sus scrofa). Moreover, the Emax in assay [1] (Cavia porcellus) came out at 100%; in assay [2] (setting [3]), 98%. The same compound showed an Index in assay [2] of 0.015.
As for `Cc1ccc(C(=O)N[C@H](NC(=S)Nc2cccnc2)C(C)(C)C)cc1` [Example 23, N-((1R)-2,2-dimethyl-1-{[(3-pyridinylamino)carbothioyl]amino}propyl)-4-methylbenzamide], the EC50 in assay [1] (Cavia porcellus) stood at 3960 nM; in assay [2] (Sus scrofa) it was 16000 nM. In addition, the figures for the Emax in assay [1] (Cavia porcellus) and in assay [2] (setting [3]) were 66% and 100%, respectively. In addition, the Index in assay [2] was determined as 0.009.
Taken in the same sequence, the figures for `Cc1ccc(C(=O)NC(NC(=S)Nc2c(F)cccc2F)C(F)(F)F)cc1` (centres unmarked) [Example 17, N-(1-{[(2,6-difluoroanilino)carbothioyl]amino}-2,2,2-trifluoroethyl)-4-methylbenzamide] were 90 nM, 12000 nM, 109%, 100% and 0.006.
For `O=C(NC(NC(=S)Nc1cccnc1)C(Cl)(Cl)Cl)c1ccc(I)cc1` (centres unmarked) [Example 148, 4-iodo-N-(2,2,2-trichloro-1-{[(3-pyridinylamino)carbothioyl]amino}ethyl)benzamide] the same measures were 96 nM, 1100 nM, 61%, 78% and 0.082.
Consider `Cc1ccc(C(=O)NC(NC(=NC#N)Nc2ccccc2F)C(Cl)(Cl)Cl)cc1` (centres unmarked) [Example 47, 4-methyl-N-(2,2,2-trichloro-1-{[(cyanoimino)(2-fluoroanilino)methyl]amino}ethyl)benzamide], for which the EC50 in assay [1] (Cavia porcellus) amounted to 60 nM; in assay [2] (Sus scrofa), 36000 nM. The Emax in assay [1] (Cavia porcellus) amounted to 98%; in assay [2] (setting [3]), 67%. In assay [2], this compound displayed an Index of 0.019.
For `Cc1ccc(C(=O)NC(NC(=S)Nc2ccc(F)cc2F)C(F)(F)F)cc1` (centres unmarked) [Example 15, N-(1-{[(2,4-difluoroanilino)carbothioyl]amino}-2,2,2-trifluoroethyl)-4-methylbenzamide] the same measures were 550 nM, 28000 nM, 70%, 97% and 0.005.
For `Cc1ccc(C(=O)NC(NC(=S)Nc2cccc([N+](=O)[O-])c2)C(F)(F)F)cc1` (centres unmarked) [Example 4, 4-methyl-N-(2,2,2-trifluoro-1-{[(3-nitroanilino)carbothioyl]amino}ethyl)benzamide] the same measures were 300 nM, 18000 nM, 133%, 89% and 0.015.
Taken in the same sequence, the figures for `O=C(Nc1cccnc1)NC(NC(=O)c1ccccc1)C(Cl)(Cl)Cl` (centres unmarked) [Example 40, N-(2,2,2-trichloro-1-{[(3-pyridinylamino)carbonyl]amino}ethyl)benzamide] were 120 nM, 15000 nM, 100%, 100% and 0.007.
For the compound `CC1=C(CC(NC(=O)c2ccc(Cl)cc2)NC(=NC#N)Nc2cccnc2)C(C)(C)CCC1` (single isomer, unassigned; (-)) [Example 89, (−) 4-chloro-N-[1-{[(cyanoimino)(3-pyridinylamino)methyl]amino}-2-(2,6,6-trimethyl-1-cyclohexen-1-yl)ethyl]benzamide], in assay [1], the EC50 came out at 100 nM and the “Maximal Response (% P1075)” value is 88 % P1075. For the same compound, in assay [2], the Index came out at 0.120 and the EC50 was found to be 3400 nM. In assay [2] (maximal efficacy relative to P1075, field stimulation 0.05 Hz, 0.5 ms, 20 volts), the “Efficacy (% P1075)” value is 41 % P1075.

The record behind these values is US20020028836A1, “Potassium channel openers” (priority 2000, published 2002).
